Source: patent US8383582B2, “Inhibitor against forming biofilm comprising κ-casein macropeptide” (Industry Foundation of Chonnam National University, priority 2010, dated 2013)

Legend:
Assay type in all cases: cell-based, Listeria monocytogenes
[1] = tested on: L. monocytogenes Scott A to AGS cell; assay: Invasion analysis (gentamicin-based) on AGS cells; settings: CMP 0.4 mg/ml, at the lower MOI, 1.5 h 37° C.
From the text: (§1) The human intestinal epithelial cell line HT-29 and the human gastric epithelial cell line AGS were purchased from the Korea Cell Line Bank (KCLB; Seoul, Korea). HT-29 cells have been extensively used as a model system for studying interaction of enteric pathogens with intestinal epithelial cells. All media and fetal bovine serum (FBS) were obtained from Gibco BRL (Life Technologies Inc., Grand Island, N.Y., USA) and JBI (Jeil Biotech services Inc., Seoul, Korea). The HT-29 and AGS cells were grown in RPMI-1640 medium which was supplemented with 10% heat-inactivated FBS. The cells were routinely cultured at 37° C. in 5% CO2 incubator with 6-well or 12-well tissue culture plates for adhesion and invasion assays and in 100-mm-diameter tissue culture plates for RNA isolation.
(§2) The invasion of epithelial cells by L. monocytogenes Scott A was studied using the gentamicin-based assay described by Bunduki et al. (1993) and Gaillard et al. (1987) with modifications. Briefly, the HT-29 and the AGS cells monolayers (10^6 cells) were inoculated with 100 μl of the L. monocytogenes Scott A suspension (10^8 and 10^6 CFU/ml) and incubated for 1.5 h at 37° C. in the absence or presence of 0.4 mg/ml CMP, respectively. The monolayers were washed with PBS, followed by the addition of 250 μl of 1 mg/ml gentamicin (Sigma) and incubation for an additional 1.5 h. […]

L. monocytogenes Scott A = assay: Light microscopy of biofilm on PVC microtiter plates and glass tube; settings: MWB 24 h, CMP 0.4 mg/ml
From the text: The quantification of biofilm production on plastic microtiter plates and glass tubes was based on a previously described method (Djordjevic et al., 2002). As abiotic surfaces for biofilm formation, 96-well polyvinyl chloride (PVC) microplates (BD Biosciences, San Jose, Calif., USA) and Pyrex glass tube (10 mm by 20 mm) were used. Overnight cultures of 12 strains of L. monocytogenes were twice washed with PBS and inoculated at 10^6 CFU/ml in modified Welshimer's broth (MWB) supplemented different concentrations of CMP (Davisco Foods International, Inc., MN, USA; 0.1, 0.2, and 0.4 mg/ml or 1.0, 2.0, and 4.0 mg/ml). After incubation at 30° C. without agitation for 24 and 48 h, the microplates were twice rinsed thoroughly with double-distilled water, and a 0.1% (w/v) solution of crystal violet (CV) was added to stain the attached cells. […] The absorbance at 595 nm of the solubilized dye was subsequently determined by using an enzyme-linked immunosorbent assay (ELISA) plate reader (Molecular Devices, Sunnyvale, Calif., USA). […]
In addition, biofilm formations on PVC microtiter plates and glass tube by L. monocytogenes incubated in MWB for 24 h in the presence or absence of CMP (0.4 mg/ml) were analyzed using light microscopy and microscopic analyses were illustrated in FIGS. 3 and 4, respectively.

[2] = tested on: virulence-associated genes of L. monocytogenes; assay: Semi-quantitative RT-PCR of virulence-associated genes; settings: 0.4 mg/ml CMP; L. monocytogenes Scott A infected HT-29 cells
Experimental: The regulation of virulence-associated genes was investigated by using semi-quantitative RT-PCR techniques. Total RNA was isolated from the each treated samples using a RNeasy™ Total RNA Kit (Qiagen) with manufacturer's manuals. One μg total RNA was reverse transcribed in 20 μl reaction mixtures with SuperScript™ III First-Strand cDNA Synthesis Kit (Invitrogen, Carlsbad, Calif.). Then, cDNA were then amplified by using Taq DNA polymerase (TaKaRa, Japan). For the iap, denaturation for 5 min at 94° C. was followed by 40 cycles composed of 30 s denaturation at 94° C., 45 s annealing at 60° C. (TABLE 4), and 1 min elongation at 72° C. Except for the iap, denaturation for 5 min at 94° C. was followed by 35 cycles composed of 1 min denaturation at 94° C., 2 min annealing at 60° C. (TABLE 4), and 1 min elongation at 72° C. The last cycle was followed by 10 min final elongation at 72° C. Oligonucleotide (Bioneer, Daejun, Korea) sequences used for the amplification of each gene fragments including expression of proteins (HT-29) are shown in TABLE 4 (Haller et al., 2000). The RT-PCR products were electrophoresed in a 1.5% agarose gel and visualized by ethidium bromide (EtBr) staining. The intensity of each band was determined by densitometric analysis of gels using Kodak DC290 zoom digital camera and Kodak 1D image analysis software (Eastman Kodak Company, Rochester, N.Y., USA).

[3] = tested on: L. monocytogenes Scott A to HT-29 cell; assay: Invasion analysis (gentamicin-based) on HT-29 cells; settings: CMP 0.4 mg/ml, at the lower MOI, 1.5 h 37° C.
From the text: as §1, §2

[4] = tested on: L. monocytogenes Scott A to AGS cell; assay: Adhesion analysis on AGS cells; settings: CMP 0.4 mg/ml, at the lower MOI, 30 min 37° C.
From the text: as §1
Prior to the adhesion assay, the HT-29 and the AGS cells monolayers were washed three times in pre-warm PBS (25° C.) to remove any culture medium and non-attached cells. The adhesion assays were performed using L. monocytogenes Scott A according to the method of Hagman et al. (1999) with modifications. Bacteria were grown overnight at 37° C. in TSBYE. […]

κ-casein macropeptide [CMP]
invasion of L. monocytogenes Scott A [1]: prevented | attached cells (light microscopy) (L. monocytogenes Scott A): only a small number of L. monocytogenes Scott A cells had attached | mRNA level of hlyA [2]: significantly repressed | mRNA level of iap [2]: significantly repressed | mRNA level of inlA [2]: significantly repressed | mRNA level of plcB [2]: significantly repressed | invasion of L. monocytogenes Scott A [3]: prevented | adhesion of L. monocytogenes Scott A [4]: prevented
